Results: ChEMBL document CHEMBL2311317, “Organosilicon molecules with medicinal applications” (J Med Chem, 2013)
The source made the active and inactive calls. The rule behind the calls is not given here.

Tests used:
[1] = target: Opioid receptors; mu/kappa/delta (Homo sapiens) (UniProt P41145+P41143+P35372); test: Inhibition of opioid receptor (unknown origin) at […]
[2] = system: HL-60; test: Growth inhibition of human HL60 cells by Sulforhodamine B assay; format: functional
[3] = system: A2780; test: Growth inhibition of human A2780 cells by Sulforhodamine B assay; format: functional
[4] = system: HepG2; test: Growth inhibition of human HepG2 cells; format: functional, cell-based
[5] = Inhibition of thermolysin metalloprotease (unknown origin); parameters: species or system Homo sapiens
[6] = Inhibition of HIV protease; parameters: species or system Human immunodeficiency virus
[7] = Inhibition of serine protease (unknown origin); parameters: species or system Homo sapiens

Opioid receptors; mu/kappa/delta (Homo sapiens), sequence (P35372 whole entry, looked up): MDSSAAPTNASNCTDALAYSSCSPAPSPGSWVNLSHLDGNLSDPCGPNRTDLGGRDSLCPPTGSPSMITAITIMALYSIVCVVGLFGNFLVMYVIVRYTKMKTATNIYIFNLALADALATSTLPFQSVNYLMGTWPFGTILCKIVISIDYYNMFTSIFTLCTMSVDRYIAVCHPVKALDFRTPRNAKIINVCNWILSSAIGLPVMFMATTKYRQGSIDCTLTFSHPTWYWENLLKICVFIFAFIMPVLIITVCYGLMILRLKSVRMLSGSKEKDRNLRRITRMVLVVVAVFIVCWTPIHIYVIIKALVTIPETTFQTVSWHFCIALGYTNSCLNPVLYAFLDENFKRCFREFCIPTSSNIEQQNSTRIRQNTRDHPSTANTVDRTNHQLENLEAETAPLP
Opioid receptors; mu/kappa/delta (Homo sapiens), sequence (P41143 whole entry, looked up): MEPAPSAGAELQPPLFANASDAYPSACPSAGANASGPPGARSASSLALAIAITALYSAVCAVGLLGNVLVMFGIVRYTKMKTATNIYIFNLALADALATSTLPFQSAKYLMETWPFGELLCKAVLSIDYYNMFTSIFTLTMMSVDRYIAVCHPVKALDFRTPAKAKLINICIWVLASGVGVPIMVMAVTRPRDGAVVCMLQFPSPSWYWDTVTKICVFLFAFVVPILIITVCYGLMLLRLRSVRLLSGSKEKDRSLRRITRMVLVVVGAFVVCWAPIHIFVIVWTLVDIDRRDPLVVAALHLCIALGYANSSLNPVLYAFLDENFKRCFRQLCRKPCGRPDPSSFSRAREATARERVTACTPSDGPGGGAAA
Opioid receptors; mu/kappa/delta (Homo sapiens), sequence (P41145 whole entry, looked up): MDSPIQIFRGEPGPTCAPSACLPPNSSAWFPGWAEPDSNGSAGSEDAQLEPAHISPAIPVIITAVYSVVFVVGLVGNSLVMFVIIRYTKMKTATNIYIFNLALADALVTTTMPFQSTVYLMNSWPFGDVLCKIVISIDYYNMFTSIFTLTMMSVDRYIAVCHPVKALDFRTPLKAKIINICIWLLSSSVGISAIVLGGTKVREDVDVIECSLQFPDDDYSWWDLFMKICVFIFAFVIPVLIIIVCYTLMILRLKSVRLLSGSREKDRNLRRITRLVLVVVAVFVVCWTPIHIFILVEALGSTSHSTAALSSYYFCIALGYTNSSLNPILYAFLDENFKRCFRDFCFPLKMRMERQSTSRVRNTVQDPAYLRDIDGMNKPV

## COc1ccc(C(CN(C)C)[Si]2(O)CCCC2)cc1 (centres undefined)
[1]
  inhibition: < 50%

## COC(=O)/C=C/C[C@H]1OCCC[C@@H]1O[Si](C)(C)C(C)(C)C (relative stereo)
[2]
  GI50: 22 µM

## COC(=O)/C=C/[C@H]1OCCC[C@H]1O[Si](C)(C)C(C)(C)C
[3]
  GI50: 98 µM

## COC(=O)/C=C\[C@H]1OCCC[C@H]1O[Si](C)(C)C(C)(C)C (relative stereo)
[3]
  GI50: 7.3 µM

## COC(=O)/C=C/C[C@H]1OCCC[C@@H]1OC(=O)c1ccccc1 (relative stereo)
[2]
  GI50: inactive

## COC(=O)/C=C/C[C@H]1OCCC[C@@H]1OC(C)=O
[2]
  GI50: inactive

## CN(C)CC(c1ccccc1)[Si]1(O)CCCCC1 (centres undefined)
[1]
  inhibition: < 50%

## COC(=O)/C=C/C[C@H]1OCCC[C@@H]1O (relative stereo)
[2]
  GI50: inactive

## COc1ccc(C(CN(C)C)[Si]2(O)CCCCC2)cc1 (racemic)
[1]
  inhibition: < 50%

## COc1ccc([Si](C)(C)[C@H]2[C@H](CC(=O)N3CCC[C@H]3CO)O[C@@]3(C(=O)N(Cc4cccc(I)c4)c4ccccc43)[C@@H]2C)cc1
[4]
  EC50: 17 µM

## CC(C)C[C@H](NC(=O)[C@H](Cc1ccccc1)C[Si](O)(O)CNC(=O)CCc1ccccc1)C(=O)O
[5]
  IC50: 0.041 µM

## O=C(N[C@H]1c2ccccc2C[C@H]1O)[C@H](Cc1ccccc1)C[Si](O)(O)C[C@@H](Cc1ccccc1)C(=O)N[C@H]1c2ccccc2C[C@H]1O
[6]
  IC50: 0.014 µM

## C[C@H](C[Si](O)(O)[C@H](Cc1ccccc1)NC(=O)[C@@H]1CCCN1)C(N)=O
[7]
  Ki: 0.107 µM

## CC(C)(C)[Si](C)(C)O[C@@H]1CCCO[C@@H]1/C=C\CO (relative stereo)
[3]
  GI50: > 100 µM
